According to patent US7442798B2, “Autoinducer molecules and uses therefor” (priority 2000, dated 2008):
“Also recorded” adds a separate entry of the source.

Key:
lasB′-lacZ fusion [1] = assay: PQS bioassay: activation of lasB′-lacZ fusion in P. aeruginosa strain PAO-R1 (lasR−) (pTS400), β-galactosidase assay; assay type: cell-based, Pseudomonas aeruginosa
Experimental: To monitor PQS bioactivity, 1-ml cultures of P. aeruginosa strain PAO-R1 (pTS400) were grown for 18 h at 37° C. with shaking (260 rpm; initial optical density was 0.02 at 660 nm) in the presence of culture extract or synthetic PQS. This was followed by measuring activation of the lasB′-lacZ fusion with the use of β-galactosidase (β-gal) assays as described by Miller (19). For culture extracts, bacterial culture fluid was extracted with ethyl acetate and was prepared as described (3). Extracts that were resuspended in ethyl acetate were added to bioassay tubes, and ethyl acetate was removed by drying under a stream of nitrogen. Unless otherwise specified, the amount of material assayed was extracted from 10 ml of culture fluid.

lasB′-lacZ fusion [2] = settings: strain PAO-R1 (lasR) (pTS400); cited from earlier work
RhlR = assay: E. coli bioassay: strain DH5a (pECP62.5) with lasB′-lacZ reporter and inducible tacp-rhlR; assay type: cell-based, Escherichia coli; settings: E. coli strain DH5a (pECP62.5), tacp-rhlR induced
Experimental: Using this information, an experiment was conducted to define the requirements for signal activity by developing an E. coli bioassay for the signal. E. coli strain DH5a was transformed with plasmid pECP62.5, which contained the lasB′-lacZ reporter and the inducible tacp-rhlR gene. If the signal worked directly through RhlR, then the induction of tacp-rhlR in the presence of exogenously added signal should result in the activation of lasB′-lacZ in E. coli strain DH5a (pECP62.5).

E. coli = assay: anti-E. coli activity; assay type: cell-based
Staphylococcus aureus = assay: anti-Staphylococcus aureus activity; assay type: cell-based
lasB′-lacZ = lasB′-lacZ bioassay in lasR, rhlR double mutant strain PAO-JP3 (pTS400); assay type: cell-based, Pseudomonas aeruginosa
Experimental: This molecule was determined to have a 4-quinolone base structure and therefore has been designated as the Pseudomonas quinolone signal (PQS). Furthermore, exogenously added PQS induced a lasB′-lacZ fusion in the P. aeruginosa lasR mutant, strain PAO-R1, containing the plasmid pTS400. […] Despite the ability of PQS to activate lasB′-lacZ in the absence of lasR, the production of PQS required an active LasR protein. […] It was also determined that at least RhlR was required for PQS to act as a signal because lasB′-lacZ was not induced by PQS in the lasR, rhlR double mutant, strain PAO-JP3, containing the plasmid pTS400.

In the case of `CCCCCCCc1cc(O)c2ccccc2[n+]1[O-]` [2-heptyl-4-hydroxy-quinoline-N-oxide, reference compound], the “induction of lasB′-lacZ / activity in the PQS bioassay (in words)” value (shortened to “induction of lasB′-lacZ / activity”) (lasB′-lacZ fusion [1]; strain PAO-R1 (lasR−) (pTS400)) is reported as “not active”.

For `CCCCCCCC1C(=O)c2ccccc2N=C1O` (stereo not shown) [2-hydroxy-3-heptyl-4-quinolone, reference compound], the “induction of lasB′-lacZ / activity” value (lasB′-lacZ fusion [1]; strain PAO-R1 (lasR−) (pTS400)) was “not active”.

For `CCCCCCCCCC(=O)CC(=O)N[C@H]1CCOC1=O` [3-oxo-C12-HSL, N-3-(oxododecanoyl)-L-homoserine lactone, reference compound], the “response of lasB′-lacZ fusion to exogenously added autoinducer (in words)” value (lasB′-lacZ fusion [2]) is listed as “unresponsive” and the “induction of lasB′-lacZ / activity” value (lasB′-lacZ fusion [1]; strain PAO-R1 (lasR−) (pTS400)) is listed as “could not be mimicked”.

In the case of `CCCC(=O)N[C@H]1CCOC1=O` [C4-HSL, N-butanoyl-L-homoserine lactone, reference compound], the “response of lasB′-lacZ fusion to exogenously added autoinducer (in words)” value (lasB′-lacZ fusion [2]) is listed as “mildly activated” and the “induction of lasB′-lacZ / activity” value (lasB′-lacZ fusion [1]; strain PAO-R1 (lasR−) (pTS400)) is listed as “could not be mimicked”.

In the case of `CCCCCCCc1[nH]c2ccccc2c(=O)c1O` [PQS, 2-heptyl-3-hydroxy-4-quinolone], the “PQS response, lasB′-lacZ, in recombinant E. coli expressing RhlR (in words)” value (RhlR) is reported as “not replicated”, the anti-E. coli activity (E. coli) is reported as “does not have detectable” and the “activation of the lasB promoter (β-gal activity)” value (lasB′-lacZ fusion [1]; 5 mM synthetic PQS, strain PAO-R1 (lasR−) (pTS400), FIG. 6) is reported as 148 Miller units. For the same compound, the EC50 (lasB′-lacZ fusion [1]; Pseudomonas aeruginosa, read-out: amount required to activate the bioassay to half of its maximum activity) was about 30 µM, the “induction of lasB′-lacZ / activity” value (lasB′-lacZ fusion [1]; strain PAO-R1 (lasR−) (pTS400)) was “active; also recorded: dose-dependent induction” and the anti-Staphylococcus aureus activity (Staphylococcus aureus) was “does not have detectable”. For the same compound, the “induction of lasB′-lacZ (in words)” value (lasB′-lacZ) was “not induced”.
